Columns and labels:
EED = conditions: read-out: reported IC50 (EED); ref Huang et al., 2017; cited from earlier work
H3K27me3 in HeLa cells = test: Western blot H3K27me3 levels in HeLa cells; assay type: cell-based, human; conditions: for H3K27me3 reduced: 10 μM, after 72 hours
EZH2 in HeLa cells [1] = test: Western blot EZH2 degradation in HeLa cells; assay type: cell-based, human; conditions: for EZH2 protein levels: 10 μM, 24 to 72 hrs
DB cell viability = assay type: cell-based; conditions: human, DB cells
EED in HeLa cells [2] = biological target: T1, EED in HeLa cells (Homo sapiens, UniProt O75530); test: Western blot EED degradation in HeLa cells; assay type: cell-based; conditions: for EED protein levels: 10 μM, 24 to 72 hrs
T1 sequence (O75530 whole entry): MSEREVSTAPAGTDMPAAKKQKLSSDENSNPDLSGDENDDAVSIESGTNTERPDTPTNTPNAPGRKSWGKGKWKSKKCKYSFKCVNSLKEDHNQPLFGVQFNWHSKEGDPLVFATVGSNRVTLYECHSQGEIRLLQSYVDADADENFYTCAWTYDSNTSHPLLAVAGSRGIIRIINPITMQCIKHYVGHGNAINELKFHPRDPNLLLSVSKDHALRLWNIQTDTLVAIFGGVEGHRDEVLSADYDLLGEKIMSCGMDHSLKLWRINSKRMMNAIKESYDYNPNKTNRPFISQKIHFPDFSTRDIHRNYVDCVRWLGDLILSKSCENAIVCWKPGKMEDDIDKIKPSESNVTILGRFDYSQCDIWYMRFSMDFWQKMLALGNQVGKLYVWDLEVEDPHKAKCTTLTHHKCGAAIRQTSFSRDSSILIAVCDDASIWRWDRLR

EED in HeLa cells [3] = biological target: T1, EED in HeLa cells; test: Jess ProteinSimple analysis of EED levels; assay type: cell-based; conditions: 5 μM, 4, 24 and 48 hrs, decrease stated at 24 hrs
EZH2 in HeLa cells [4] = test: Jess ProteinSimple analysis of EZH2 levels; assay type: cell-based, human; conditions: 5 μM, 4, 24 and 48 hrs, decrease stated at 24 hrs
[5] = biological target: 6XHis-tagged recombinant EED (residues 1 – 441) (Homo sapiens, UniProt O75530); test: TR-FRET EED binding assay; conditions: TR-FRET EED IC50 relative to EED226
Chain of 6XHis-tagged recombinant EED (residues 1 – 441) (O75530 whole entry, the tested form may be a part): as the sequence (O75530 whole entry) above

Pfeiffer cells = test: Pfeiffer cell proliferation; assay type: cell-based, human; conditions: up to 12 days, 3 μM (Figure 6B)
[6] = system: H3K27me3 in DB cells (EZH2^Y641N); test: Western blot H3K27me3 levels in DB cells; assay type: cell-based, human; conditions: 10 μM, after 72 hours
[7] = system: EZH2/EZH2^Y641N in DB cells; test: Western blot EZH2 degradation in DB cells; assay type: cell-based, human
SUZ12 in HeLa cells [8] = test: Western blot SUZ12 degradation in HeLa cells; assay type: cell-based, human
DB cells = test: DB cell proliferation; assay type: cell-based, human; conditions: up to 12 days, 3 μM (Figure 6A)
[9] = biological target: PRC2 subunits in Pfeiffer cells (EZH2^A677G) (Homo sapiens, UniProt O75530); test: PRC2 degradation in Pfeiffer cells; assay type: cell-based; conditions: Figure S6
Chain of PRC2 subunits in Pfeiffer cells (EZH2^A677G) (O75530 whole entry, stated change not applied): as the sequence (O75530 whole entry) above
Chain of PRC2 subunits in Pfeiffer cells (EZH2^A677G) (Q15910 whole entry A677G partner): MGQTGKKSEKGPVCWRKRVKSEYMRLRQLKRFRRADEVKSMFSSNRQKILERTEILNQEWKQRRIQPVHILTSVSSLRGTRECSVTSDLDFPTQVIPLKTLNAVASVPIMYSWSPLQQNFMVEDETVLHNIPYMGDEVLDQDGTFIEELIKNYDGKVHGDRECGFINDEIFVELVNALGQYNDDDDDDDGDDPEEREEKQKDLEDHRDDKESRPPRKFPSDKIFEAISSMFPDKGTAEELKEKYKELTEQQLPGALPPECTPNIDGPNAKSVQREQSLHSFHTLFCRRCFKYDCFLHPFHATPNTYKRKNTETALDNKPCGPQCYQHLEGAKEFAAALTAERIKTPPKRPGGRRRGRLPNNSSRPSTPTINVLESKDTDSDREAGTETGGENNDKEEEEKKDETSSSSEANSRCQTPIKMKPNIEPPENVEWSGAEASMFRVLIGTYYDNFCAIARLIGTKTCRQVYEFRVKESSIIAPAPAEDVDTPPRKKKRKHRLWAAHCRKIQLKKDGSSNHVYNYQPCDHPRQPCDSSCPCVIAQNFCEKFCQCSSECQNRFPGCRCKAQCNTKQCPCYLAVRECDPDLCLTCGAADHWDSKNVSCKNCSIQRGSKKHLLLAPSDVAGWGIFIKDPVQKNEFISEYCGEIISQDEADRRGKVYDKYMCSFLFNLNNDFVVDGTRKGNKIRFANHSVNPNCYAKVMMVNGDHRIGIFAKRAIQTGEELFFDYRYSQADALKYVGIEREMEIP
Chain of PRC2 subunits in Pfeiffer cells (EZH2^A677G) (Q15022 whole entry partner): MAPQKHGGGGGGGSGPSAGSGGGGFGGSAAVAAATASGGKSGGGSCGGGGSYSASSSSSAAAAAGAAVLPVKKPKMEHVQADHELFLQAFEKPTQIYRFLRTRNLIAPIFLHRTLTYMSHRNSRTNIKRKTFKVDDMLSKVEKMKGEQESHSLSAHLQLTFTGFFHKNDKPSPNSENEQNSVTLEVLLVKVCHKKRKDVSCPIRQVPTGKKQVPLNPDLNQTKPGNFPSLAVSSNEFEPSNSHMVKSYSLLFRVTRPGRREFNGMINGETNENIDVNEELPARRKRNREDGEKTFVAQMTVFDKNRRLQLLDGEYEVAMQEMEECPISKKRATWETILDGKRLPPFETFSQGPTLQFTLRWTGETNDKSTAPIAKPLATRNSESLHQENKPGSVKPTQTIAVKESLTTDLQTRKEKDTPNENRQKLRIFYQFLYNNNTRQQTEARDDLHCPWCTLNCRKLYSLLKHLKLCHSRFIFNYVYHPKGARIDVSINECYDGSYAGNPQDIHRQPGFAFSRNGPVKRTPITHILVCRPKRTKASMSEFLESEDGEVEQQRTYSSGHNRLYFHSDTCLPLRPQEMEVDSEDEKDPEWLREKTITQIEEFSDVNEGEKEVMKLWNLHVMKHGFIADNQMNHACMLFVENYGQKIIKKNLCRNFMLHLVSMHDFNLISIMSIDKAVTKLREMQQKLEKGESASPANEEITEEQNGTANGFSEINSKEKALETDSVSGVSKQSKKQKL

HeLa cells = test: Cellular toxicity in HeLa cells; assay type: cell-based, human; conditions: concentrations up to 30 μM
[10] = biological target: EED in DB cells (EZH2^Y641N) (Homo sapiens, UniProt O75530); test: Western blot EED degradation in DB cells; assay type: cell-based
Chain of EED in DB cells (EZH2^Y641N) (O75530 2-441 limits assumed, stated change not applied): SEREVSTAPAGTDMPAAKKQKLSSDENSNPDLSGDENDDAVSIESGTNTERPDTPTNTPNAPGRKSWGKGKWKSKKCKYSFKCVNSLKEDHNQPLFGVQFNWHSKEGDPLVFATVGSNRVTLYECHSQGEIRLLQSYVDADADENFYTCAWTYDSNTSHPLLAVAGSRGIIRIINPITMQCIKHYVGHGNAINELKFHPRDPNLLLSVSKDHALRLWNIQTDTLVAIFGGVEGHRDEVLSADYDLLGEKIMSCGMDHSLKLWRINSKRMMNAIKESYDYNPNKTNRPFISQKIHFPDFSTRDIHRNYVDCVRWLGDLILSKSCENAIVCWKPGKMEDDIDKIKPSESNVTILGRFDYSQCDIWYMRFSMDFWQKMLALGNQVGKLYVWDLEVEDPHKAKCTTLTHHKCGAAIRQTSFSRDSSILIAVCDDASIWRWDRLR

SUZ12 in HeLa cells [11] = test: Global proteomics; assay type: cell-based, human; conditions: 10 μM, 24 hrs, TMT proteomics
[12] = system: SUZ12 in DB cells (EZH2^Y641N); test: Western blot SUZ12 degradation in DB cells; assay type: cell-based, human

CS(=O)(=O)c1ccc(-c2cnc(NCc3ccco3)n3cnnc23)cc1 [EED226, reference compound]
IC50 (EED): 22 nM | H3K27me3 reduced (H3K27me3 in HeLa cells): 52% | EZH2 protein levels (EZH2 in HeLa cells [1]): had no effect | viability at 12 days, 3 μM (DB cell viability): 67% | EED protein levels (EED in HeLa cells [2]; HeLa cells): had no effect

CCCc1cc(C)[nH]c(=O)c1CNC(=O)c1cc(-c2ccc(N3CCN(C(C)C)CC3)nc2)cc2c1cnn2C(C)C [UNC1999, reference compound]
H3K27me3 reduced (H3K27me3 in HeLa cells): 60% | EZH2 protein levels (EZH2 in HeLa cells [1]): had no effect | viability at 12 days, 3 μM (DB cell viability): 67% | EED protein levels (EED in HeLa cells [2]; HeLa cells): had no effect

Cc1ncsc1-c1ccc(CNC(=O)[C@@H]2C[C@@H](O)CN2C(=O)[C@@H](NC(=O)CCOCCOCCNC(=O)c2ccc(-c3cnc(NCc4ccco4)n4cnnc34)cc2)C(C)(C)C)cc1 [UNC6845, (2S,4R)-1-((S)-13-(tert-butyl)-1-(4-(5-((furan-2-ylmethyl)amino)-[1,2,4]triazolo[4,3-c]pyrimidin-8-yl)phenyl)-1,11-dioxo-5,8-dioxa-2,12-diazatetradecan-14-oyl)-4-hydroxy-N-(4-(4-methylthiazol-5-yl)benzyl)pyrrolidine-2-carboxamide]
EED levels (Jess) (EED in HeLa cells [3]): unable to alter the levels | EZH2 levels (Jess) (EZH2 in HeLa cells [4]): unable to alter the levels | loss in potency compared to EED226 [5]: 2 fold

Cc1ncsc1-c1ccc(CNC(=O)[C@@H]2C[C@@H](O)CN2C(=O)[C@@H](NC(=O)COCCOCCOCCNC(=O)c2ccc(-c3cnc(NCc4ccco4)n4cnnc34)cc2)C(C)(C)C)cc1 [UNC6846, (2S,4R)-1-((S)-15-(tert-butyl)-1-(4-(5-((furan-2-ylmethyl)amino)-[1,2,4]triazolo[4,3-c]pyrimidin-8-yl)phenyl)-1,13-dioxo-5,8,11-trioxa-2,14-diazahexadecan-16-oyl)-4-hydroxy-N-(4-(4-methylthiazol-5-yl)benzyl)pyrrolidine-2-carboxamide]
EED levels (Jess) (EED in HeLa cells [3]): unable to alter the levels | EZH2 levels (Jess) (EZH2 in HeLa cells [4]): unable to alter the levels | loss in potency compared to EED226 [5]: 14 fold

Cc1ncsc1-c1ccc(CNC(=O)[C@@H]2C[C@@H](O)CN2C(=O)[C@@H](NC(=O)CCOCCOCCOCCOCCNC(=O)c2ccc(-c3cnc(NCc4ccco4)n4cnnc34)cc2)C(C)(C)C)cc1 [UNC6847, (2S,4R)-1-((S)-19-(tert-butyl)-1-(4-(5-((furan-2-ylmethyl)amino)-[1,2,4]triazolo[4,3-c]pyrimidin-8-yl)phenyl)-1,17-dioxo-5,8,11,14-tetraoxa-2,18-diazaicosan-20-oyl)-4-hydroxy-N-(4-(4-methylthiazol-5-yl)benzyl)pyrrolidine-2-carboxamide]
EED levels (Jess) (EED in HeLa cells [3]): unable to alter the levels | EZH2 levels (Jess) (EZH2 in HeLa cells [4]): unable to alter the levels | loss in potency compared to EED226 [5]: 5 fold

Cc1ncsc1-c1ccc(CNC(=O)[C@@H]2C[C@@H](O)CN2C(=O)[C@@H](NC(=O)CCNC(=O)c2ccc(-c3cnc(NCc4ccco4)n4cnnc34)cc2)C(C)(C)C)cc1 [UNC6851, (2S,4R)-1-((S)-2-(3-(4-(5-((furan-2-ylmethyl)amino)-[1,2,4]triazolo[4,3-c]pyrimidin-8-yl)benzamido)propanamido)-3,3-dimethylbutanoyl)-4-hydroxy-N-(4-(4-methylthiazol-5-yl)benzyl)pyrrolidine-2-carboxamide]
EED levels (Jess) (EED in HeLa cells [3]): decrease in the levels | EZH2 levels (Jess) (EZH2 in HeLa cells [4]): decrease in the levels | loss in potency compared to EED226 [5]: 6 fold

Cc1ncsc1-c1ccc(CNC(=O)[C@@H]2C[C@@H](O)CN2C(=O)[C@@H](NC(=O)CCCNC(=O)c2ccc(-c3cnc(NCc4ccco4)n4cnnc34)cc2)C(C)(C)C)cc1 [UNC6852, (2S,4R)-1-((S)-2-(4-(4-(5-((furan-2-ylmethyl)amino)-[1,2,4]triazolo[4,3-c]pyrimidin-8-yl)benzamido)butanamido)-3,3-dimethylbutanoyl)-4-hydroxy-N-(4-(4-methylthiazol-5-yl)benzyl)pyrrolidine-2-carboxamide]
effect on cell proliferation (Pfeiffer cells): robust anti-proliferative effects | loss of H3K27me3 [6]: 71% | Dmax EZH2/EZH2^Y641N [7]: 96% | DC50 ([7]; read-out: DC50 EZH2/EZH2^Y641N, 24 hours): 670 ± 240 nM | EED levels (Jess) (EED in HeLa cells [3]): decrease in the levels | Dmax SUZ12 (maximal degradation) (SUZ12 in HeLa cells [8]; western blot): 22% | effect on cell proliferation (DB cells): robust anti-proliferative effects | degradation of PRC2 subunits [9]: degradation of all three PRC2 subunits | EZH2 levels (Jess) (EZH2 in HeLa cells [4]): decrease in the levels | cellular toxicity (HeLa cells): no cellular toxicity was observed | H3K27me3 reduced (H3K27me3 in HeLa cells): 51% | H3K27me3 levels after 96 hours (H3K27me3 in HeLa cells; 96 hours of treatment): further decrease in H3K27me3 levels | Dmax ([10]; DB, read-out: Dmax EED): 94% | DC50 ([10]; read-out: DC50 EED, DB cells, 24 hours): 610 ± 180 nM | SUZ12 degradation (proteomics) (SUZ12 in HeLa cells [11]): 21% | SUZ12 log2 fold change (treated/DMSO treated) (SUZ12 in HeLa cells [11]): −0.34 | EZH2 degradation (EZH2 in HeLa cells [1]; 5 μM, 24 hours, western blot): 76% | EZH2 protein levels (EZH2 in HeLa cells [1]): decrease in protein levels | Dmax EZH2 (maximal degradation) (EZH2 in HeLa cells [1]; % degradation at 30 μM after 24 hours): 75% | Dmax SUZ12 ([12]; DB cells): 82% | maximal degradation of SUZ12 in DB cells relative to HeLa cells ([12]; DB vs HeLa): 3.7 fold | EC50 ([12]; read-out: half maximal degradation concentration SUZ12, DB cells, 24 hours): 590 ± 170 nM | viability at 12 days, 3 μM (DB cell viability): 95% | loss in potency compared to EED226 [5]: 5.5 fold | EED degradation (EED in HeLa cells [2]; HeLa cells, 5 μM, 24 hours, western blot): 80% | EED protein levels (EED in HeLa cells [2]; HeLa cells): decrease in protein levels | Dmax at 30 µM (EED in HeLa cells [2]; HeLa, read-out: Dmax EED (maximal degradation)): 92%

Cc1ncsc1-c1ccc(CNC(=O)[C@@H]2C[C@@H](O)CN2C(=O)[C@@H](NC(=O)CCCCNC(=O)c2ccc(-c3cnc(NCc4ccco4)n4cnnc34)cc2)C(C)(C)C)cc1 [UNC6853, (2S,4R)-1-((S)-2-(5-(4-(5-((furan-2-ylmethyl)amino)-[1,2,4]triazolo[4,3-c]pyrimidin-8-yl)benzamido)pentanamido)-3,3-dimethylbutanoyl)-4-hydroxy-N-(4-(4-methylthiazol-5-yl)benzyl)pyrrolidine-2-carboxamide]
EED levels (Jess) (EED in HeLa cells [3]): significant degradation was not observed | EZH2 levels (Jess) (EZH2 in HeLa cells [4]): significant degradation was not observed | loss in potency compared to EED226 [5]: 8 fold

Cc1ncsc1-c1ccc(CNC(=O)[C@@H]2C[C@H](O)CN2C(=O)[C@@H](NC(=O)CCCNC(=O)c2ccc(-c3cnc(NCc4ccco4)n4cnnc34)cc2)C(C)(C)C)cc1 [UNC7043, (2S,4S)-1-((S)-2-(4-(4-(5-((furan-2-ylmethyl)amino)-[1,2,4]triazolo[4,3-c]pyrimidin-8-yl)benzamido)butanamido)-3,3-dimethylbutanoyl)-4-hydroxy-N-(4-(4-methylthiazol-5-yl)benzyl)pyrrolidine-2-carboxamide]
effect on cell proliferation (Pfeiffer cells): had no effect on cell proliferation | EZH2 levels (western blot) ([7]; 10 μM for 24 hours): did not affect the levels | SUZ12 degradation (western blot) (SUZ12 in HeLa cells [8]; 10 μM for 24 hrs): did not degrade | effect on cell proliferation (DB cells): had no effect on cell proliferation | EED levels (western blot) ([10]; DB cells, 10 μM for 24 hours): did not affect the levels | EZH2 degradation (western blot) (EZH2 in HeLa cells [1]; 10 μM for 24 hrs): did not degrade | SUZ12 levels (western blot) ([12]; DB cells, 10 μM for 24 hours): did not affect the levels | EED degradation (western blot) (EED in HeLa cells [2]; HeLa cells, 10 μM for 24 hrs): did not degrade
